The values below come from ChEMBL document CHEMBL1201862, “PubChem BioAssay data set” (2004).

Test systems include MCF7; ACHN; OVCAR-3; NCI-H226; UACC-257; HCT-15; HCT-116; Malme-3M; MDA-N; Hs-578T; SW-620; SR; OVCAR-4; T47D; LOX IMVI; SK-MEL-2; SNB-75; PC-3; U-251.
What all share (test): NCI anticancer screen, dose series, 48 h

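Cells were grown in 96-well plates and exposed to each compound for 48 hours at five concentrations; endpoints were interpolated linearly between bracketing concentrations, or set to the highest concentration if not reached. At the GI50, growth is halved.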 Activity calls are given as the source filed them. Cut-off read from the data, not from the text of the source: active = GI50 up to about 1.1 µM and inactive = higher.

As to `COC1OC(CBr)C(OC(c2ccccc2)(c2ccccc2)c2ccccc2)C(OC(c2ccccc2)(c2ccccc2)c2ccccc2)C1OC(c1ccccc1)(c1ccccc1)c1ccccc1` (stereo not drawn), the GI50 in the assay with MCF7 was 41.7 µM (inactive); with ACHN, 45.9 µM (inactive); in the assay on OVCAR-3, 14.1 µM (inactive); with NCI-H226, 33.4 µM (inactive); in the assay on UACC-257 it was > 100 µM (inactive); in the assay with HCT-15, > 100 µM. Also, the GI50 was 37.6 µM (inactive) in the assay on HCT-116; 33.8 µM (inactive) in the assay with Malme-3M; 74.3 µM (inactive) with MDA-N; 34.9 µM (inactive) in the assay with Hs-578T; 64.1 µM (inactive) in the assay with SW-620; > 100 µM (inactive) in the assay with SR. Also, the GI50 in the assay on OVCAR-4 is 18.3 µM (inactive); with T47D, 22.6 µM (inactive); with LOX IMVI it was > 100 µM (inactive).

In the case of `CCOC(=O)Cn1c2ccc(Br)cc2c2nc3ccccc3nc21`, the GI50 in the assay with SK-MEL-2, in the assay on ACHN, in the assay on OVCAR-3, in the assay with NCI-H226, with SNB-75 and with UACC-257 was > 100 µM (inactive) each time. Moreover, the GI50 with HCT-116 was > 100 µM (inactive); in the assay on PC-3, > 100 µM (inactive); with MDA-N, > 100 µM (inactive); with Hs-578T, 93.3 µM (inactive); with SW-620 it was > 100 µM (inactive); with SR, 88.7 µM (inactive). For the same compound, the GI50 in the assay on T47D, with U-251 and in the assay with LOX IMVI was > 100 µM (inactive) in each case.

In the case of `CCOC(=O)c1c(-c2ccc(O)c(OC)c2)c(C#N)c(=S)n(C2OC(CO)C(O)C(O)C2O)c1-c1ccccc1` (stereo not drawn), the GI50 in the assay on MCF7 was > 100 µM (inactive); in the assay with ACHN, > 100 µM (inactive); in the assay on OVCAR-3 it was > 100 µM (inactive); in the assay with NCI-H226 it was 13 µM (inactive); in the assay on UACC-257, > 100 µM (inactive); in the assay with HCT-15, > 100 µM. The GI50 with HCT-116, in the assay with PC-3, in the assay on MDA-N, with Hs-578T, in the assay with SW-620 and in the assay on SR was > 100 µM (inactive) each time. The GI50 in the assay with OVCAR-4, in the assay with U-251 and in the assay with LOX IMVI was > 100 µM (inactive) each time.

Take `CC(C)[C@]12O[C@H]1[C@@H]1O[C@]13[C@]1(O[C@H]1C[C@H]1C4=C(CC[C@@]13C)C(=O)OC4)[C@@H]2O` [TRIPTOLIDE]: the GI50 with SK-MEL-2 was 0.00643 µM (active); with MCF7 it was 0.00427 µM (active); in the assay on ACHN, 0.00679 µM (active); in the assay with OVCAR-3 it was 0.00586 µM (active); with NCI-H226, 0.0216 µM (active); in the assay with SNB-75, 0.0101 µM (active). The GI50 in the assay with HCT-15 was 0.014 µM; in the assay on HCT-116 it was 0.00258 µM (active); in the assay on Malme-3M, 0.0112 µM (active); with PC-3, 0.0181 µM (active); in the assay with MDA-N it was 0.00759 µM (active); in the assay on Hs-578T, 0.015 µM (active). For the same compound, the GI50 is 0.0141 µM (active) in the assay with SW-620; 0.0173 µM (active) with SR; 0.00792 µM (active) in the assay with OVCAR-4; 0.061 µM (active) with U-251; 0.00514 µM (active) in the assay on LOX IMVI.

As to `CC(=O)Oc1ccc(C)c2c1[C@H]1CC[C@]3(C)[C@@H](OC(C)=O)CC[C@H]3[C@@H]1CC2`, the GI50 with MCF7 was 23.6 µM (inactive); in the assay on ACHN, 16.2 µM (inactive); with OVCAR-3, 18.2 µM (inactive); with NCI-H226, 21.8 µM (inactive); with SNB-75, 24.9 µM (inactive); in the assay with UACC-257, 17.9 µM (inactive). Also, the GI50 in the assay with HCT-15 was 17.8 µM; in the assay with HCT-116, 17 µM (inactive); in the assay on Malme-3M, 15.7 µM (inactive); in the assay with MDA-N, 18.5 µM (inactive); in the assay on Hs-578T, 23 µM (inactive); with SW-620 it was 18.9 µM (inactive). Further, the GI50 in the assay with SR was 34.1 µM (inactive); with T47D, 19.3 µM (inactive); with U-251, 15.2 µM (inactive); in the assay on LOX IMVI, 17 µM (inactive).
